We go through 28 compounds from patent publication US5872115A, “2-ureido-benzamide derivatives” (Grelan Pharmaceutical Co. Ltd., priority 1995, dated 1999).

The target of experiment [1] is T1, THP-1 microsomal ACAT (Homo sapiens, UniProt P35610).
T1 construct: ACAT enzyme fraction was prepared from microsome of human leukemia THP-1 cell; endogenous in cells; host or cells: THP-1 (human leukemia), microsomes
T1 sequence (P35610 1-550): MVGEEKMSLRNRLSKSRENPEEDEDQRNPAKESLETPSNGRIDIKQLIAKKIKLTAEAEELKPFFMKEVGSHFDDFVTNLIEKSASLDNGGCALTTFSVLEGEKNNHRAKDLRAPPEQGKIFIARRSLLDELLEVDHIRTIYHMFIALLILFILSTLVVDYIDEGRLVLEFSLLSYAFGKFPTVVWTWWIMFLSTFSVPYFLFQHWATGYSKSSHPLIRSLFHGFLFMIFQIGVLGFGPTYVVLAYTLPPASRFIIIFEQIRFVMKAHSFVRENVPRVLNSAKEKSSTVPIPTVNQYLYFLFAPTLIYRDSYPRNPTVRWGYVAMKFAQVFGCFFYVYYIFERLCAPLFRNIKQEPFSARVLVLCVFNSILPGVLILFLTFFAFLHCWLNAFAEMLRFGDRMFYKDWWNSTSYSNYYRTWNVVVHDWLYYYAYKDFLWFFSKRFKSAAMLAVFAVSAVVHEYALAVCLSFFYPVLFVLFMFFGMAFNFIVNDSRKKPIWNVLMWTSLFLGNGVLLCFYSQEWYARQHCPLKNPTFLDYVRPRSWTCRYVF
The experiment is described as follows: In vitro test using THP-1 microsome (ACAT inhibition). Type of experiment: biochemical.
Procedure: (4) In Vitro Test Using THP-1 Microsome
Then, the reaction was initiated by the addition of 5 nmoles of labeled [^14 C] oleoyl-CoA dissolved in 20 μl of said phosphate buffer solution containing BSA and the reaction was stopped by the addition of 20 μl of 2N HCl after 10 minutes. [^14 C] cholesterol-oleate formed was separated by thin-layer chromatography and the radioactivity was counted with liquid scintillation counter.
ACAT inhibitory activities of the test compounds were shown as IC50 values.

The target in experiment [2] is T1, THP-1 microsomal ACAT. The experiment is described as follows: Bioavailability assessment of ACAT inhibitors by their ex vivo activity (serum of dosed mice on THP-1 microsomal ACAT). Type of experiment: in vivo. As for the experimental part: (5) Bioavailability Assessment of ACAT Inhibitors by Their <<ex vivo>> Activity
[…] Blood samples were collected 0.5, 1, 1.5, 2, 6 hour postdose. Serum were harvested after gentle centrifugation and stored at -20.
The following day, 10 μl serum were preincubated at 37 for 5 minutes with 20 μl of THP-1 microsomal ACAT and then incubated 10 minutes with 20 μl of radiolabeled oleoyl-CoA as described above in method (4). The serum is used instead of the drug solution.
ACAT inhibitory activities of the test compounds were shown as maximum inhibition percentages (Imax).

Where [3] appears, read: female mice, 30 mg/kg per os, 1% CMC-Na 0.2% Tween 80, maximum inhibition by serum.
Where [4] appears, read: THP-1 microsome, read-out: IC50 THP1 microsome.
[5] abbreviates: tested at 100 mg/kg in a suspension of 0.5% CMC-Na (footnote *).

Read-outs that look alike come from different tables or passages of the source.

Turning to `CCCCNC(=O)Nc1ccc(OC(=O)NCCCC)cc1C(=O)NCC1CCN(C(c2ccccc2)c2ccccc2)CC1` [77 (b), 5-n-butylcarbamyloxy-2-(N'-n-butylureido)-N-[(1-diphenylmethylpiperidin-4-yl)methyl]benzamide], the IC50 (commonly the midpoint of a concentration-inhibition curve) at THP-1 microsomal ACAT [1] came out at 50 nM. On THP-1 microsomal ACAT [2] (setting [3]), the “Imax Ex vivo” value was found to be 41.37%.
Turning to `CCCCNC(=O)Nc1ccc([S+](C)[O-])cc1C(=O)NCC1CCN(C(c2ccccc2)c2ccccc2)CC1` (centres unmarked) [111 (a)], at THP-1 microsomal ACAT [1] (setting [4]), the IC50 came to 100 nM. For the same compound, the “Imax Ex vivo” value on THP-1 microsomal ACAT [2] (setting [3]) amounted to 62.01%.
With `CCCCNC(=O)Nc1ccc(N(CC)CC)cc1C(=O)NCC1CCN(C(c2ccccc2)c2ccccc2)CC1` [Example 62, 2-(N'-n-Butylureido)-5-diethylamino-N-[(1-diphenylmethylpiperidin-4-yl)-methyl]-benzamide], the IC50 at THP-1 microsomal ACAT [1] (setting [4]) stood at 30 nM. Further, the “Imax Ex vivo” value at THP-1 microsomal ACAT [2] (setting [3]) amounted to 62.57%.
The matching figures for `CCCCNC(=O)Nc1ccc(-n2ccnc2)cc1C(=O)NCC1CCN(C(c2ccccc2)c2ccccc2)CC1` [Example 64, 2-(N'-n-Butylureido)-5-(imidazol-1-yl)-N-[(1-diphenylmethylpiperidin-4-yl)-methyl]-benzamide]: 200 nM and 43.14%.
The like results for `CCCCNC(=O)Nc1ccc(N2CCCC2)cc1C(=O)NCC1CCN(C(c2ccccc2)c2ccccc2)CC1` [Example 65, 2-(N'-n-Butylureido)-5-(pyrrolidin-1-yl)-N-[(1-diphenylmethylpiperidin-4-yl)methyl]-benzamide] were, in that order, 60 nM and 37.43%.
The like results for `CCCCNC(=O)Nc1ccc(OC)cc1C(=O)NCC1CCN(C(c2ccccc2)c2ccccc2)CC1` [Example 67, 2-(N'-Butylureido)-5-methoxy-N-[(1-diphenylmethylpiperidin-4-yl)methyl]-benzamide] were, in that order, 50 nM and 51.97%.
With `CCCCNC(=O)Nc1ccc(OCC)cc1C(=O)NCC1CCN(C(c2ccccc2)c2ccccc2)CC1` [Example 68, 2-(N'-n-Butylureido)-5-ethoxy-N-[(1-diphenylmethylpiperidin-4-yl)methyl]-benzamide], the IC50 at THP-1 microsomal ACAT [1] (setting [4]) was 30 nM. For the same compound, at THP-1 microsomal ACAT [2] (setting [3]), the “Imax Ex vivo” value is listed as 50.51%.
As to `CCCCNC(=O)Nc1ccc(OCC2CC2)cc1C(=O)NCC1CCN(C(c2ccccc2)c2ccccc2)CC1` [Example 69, 2-(N'-n-Butylureido)-5-cyclopropylmethoxy-N-[(1-diphenylmethylpiperidin-4-yl)methyl]-benzamide], at THP-1 microsomal ACAT [1] (setting [4]), the IC50 was 30 nM. For the same compound, the “Imax Ex vivo” value at THP-1 microsomal ACAT [2] (setting [3]) is reported as 40.11%.
The matching figures for `CCCCNC(=O)Nc1ccc(SC)cc1C(=O)NCC1CCN(C(c2ccccc2)c2ccccc2)CC1` [Example 73]: 20 nM and 38.17%.
With `CCCCCCCNC(=O)Nc1ccc(-n2ccnc2)cc1C(=O)NCC1CCN(C(c2ccccc2)c2ccccc2)CC1` [Example 79, 2(N'-n-Heptylureido)-5-(imidazol-1-yl)-N-[(1-diphenylmethylpiperidin-4-yl)methyl]-benzamide], the IC50 at THP-1 microsomal ACAT [1] (setting [4]) was 220 nM. Further, the “Imax Ex vivo” value at THP-1 microsomal ACAT [2] (setting [5]) stood at 63.26%.
As to `CCCCCCCCCCNC(=O)Nc1ccc(N(C)C)cc1C(=O)NCC1CCN(C(c2ccccc2)c2ccccc2)CC1` [Example 80, 2-(N'-n-Decylureido)-5-dimethylamino-N-[(1-diphenylmethylpiperidin-4-yl)methyl]-benzamide], the IC50 at THP-1 microsomal ACAT [1] (setting [4]) was 170 nM.
On to `CCCCCCCNC(=O)Nc1ccc(OC)cc1C(=O)NCC1CCN(C(c2ccccc2)c2ccccc2)CC1` [Example 81, 2-(N'-n-Heptylureido)-5-methoxy-N-[(1-diphenylmethylpiperidin-4-yl)methyl]benzamide], for which the IC50 on THP-1 microsomal ACAT [1] (setting [4]) is 40 nM. At THP-1 microsomal ACAT [2] (setting [5]), the “Imax Ex vivo” value is 74.11%.
As for `CCCCCCCNC(=O)Nc1ccc(N2CCOCC2)cc1C(=O)NCC1CCN(C(c2ccccc2)c2ccccc2)CC1` [Example 82, 2-(N'-n-Heptylureido)-5-(morpholin-4-yl)-N-[(1-diphenylmethylpiperidin-4-yl)methyl]-benzamide], the IC50 at THP-1 microsomal ACAT [1] (setting [4]) stood at 100 nM. Moreover, the “Imax Ex vivo” value on THP-1 microsomal ACAT [2] (setting [3]) is listed as 50.15%.
On to `CCCCCCCNC(=O)Nc1ccc(N2CCCCC2)cc1C(=O)NCC1CCN(C(c2ccccc2)c2ccccc2)CC1` [Example 83, 2-(N'-n-Heptylureido)-5-(piperidin-1-yl)-N-[(1-diphenylmethylpiperidin-4-yl)methyl]benzamide], for which, on THP-1 microsomal ACAT [1] (setting [4]), the IC50 came out at 270 nM.
As for `CCCCCCCNC(=O)Nc1ccc(-n2cccn2)cc1C(=O)NCC1CCN(C(c2ccccc2)c2ccccc2)CC1` [Example 84, 2-(N'-n-Heptylureido)-5-(pyrazol-1-yl)-N-[(1-diphenylmethylpiperidin-4-yl)-methyl]-benzamide], the IC50 at THP-1 microsomal ACAT [1] (setting [4]) came out at 100 nM. Further, at THP-1 microsomal ACAT [2] (setting [3]), the “Imax Ex vivo” value stood at 5.75%.
`CCCCCCCNC(=O)Nc1ccc(N2CCCC2)cc1C(=O)NCC1CCN(C(c2ccccc2)c2ccccc2)CC1` [Example 85, 2-(N'-n-Heptylureido)-5-(pyrrolidin-1-yl)-N-[(1-diphenylmethylpiperidin-4-yl)methyl]-benzamide]: the IC50 at THP-1 microsomal ACAT [1] (setting [4]) was 60 nM. Further, the “Imax Ex vivo” value at THP-1 microsomal ACAT [2] (setting [3]) was 11.33%.
In the case of `CCCCCCCNC(=O)Nc1ccc(OCC)cc1C(=O)NCC1CCN(C(c2ccccc2)c2ccccc2)CC1` [Example 86, 5-Ethoxy-2-(N'-n-heptylureido)-N-[(1-diphenylmethylpiperidin-4-yl)methyl]-benzamide], the IC50 at THP-1 microsomal ACAT [1] (setting [4]) was determined as 40 nM.
Consider `CCCCCCCNC(=O)Nc1ccc(N(CC)CC)cc1C(=O)NCC1CCN(C(c2ccccc2)c2ccccc2)CC1` [Example 87, 5-Diethylamino-2-(N'-n-heptylureido)-N-[(1-diphenylmethylpiperidin-4-yl)-methyl]-benzamide], for which, on THP-1 microsomal ACAT [1] (setting [4]), the IC50 was determined as 200 nM.
With `CCCCCCCNC(=O)Nc1ccc(N(C)C)cc1C(=O)NCC1CCCN(C(c2ccccc2)c2ccccc2)C1` (centres unmarked) [Example 89, 2-(N'-n-Heptylureido)-5-dimethylamino-N-[(1-diphenylmethylpiperidin-3-yl)methyl]-benzamide], the IC50 on THP-1 microsomal ACAT [1] (setting [4]) is 60 nM.
For `CCCCCCCNC(=O)Nc1ccc(N(C)C(C)=O)cc1C(=O)NCC1CCN(C(c2ccccc2)c2ccccc2)CC1` [Example 91, 5-(N-Acetyl-N-methyl)amino-2-(N'-n-heptylureido)-N-[(1-diphenylmethylpiperidin-4-yl)-methyl]benzamide], the IC50 at THP-1 microsomal ACAT [1] (setting [4]) stood at 80 nM. Also, on THP-1 microsomal ACAT [2] (setting [3]), the “Imax Ex vivo” value is listed as 61.47%.
With `CCCCCCCNC(=O)Nc1ccc(N(C)C)cc1C(=O)NCC1CCN(C(c2ccc(Cl)cc2)c2ccc(Cl)cc2)CC1` [Example 92, 2-(N'-n-Heptylureido)-5-dimethylamino-N-[[1-bis(4-chlorophenyl)methylpiperidin-4-yl]-methyl]benzamide], the IC50 on THP-1 microsomal ACAT [1] (setting [4]) was found to be 300 nM.
`CCCCCCCNC(=O)Nc1ccc(N(C)C)cc1C(=O)NCC1CCN(C(c2ccc(F)cc2)c2ccc(F)cc2)CC1` [Example 93, 2-(N'-n-Heptylureido)-5-dimethylamino-N-[[1-bis(4-fluorophenyl)methylpiperidin-4-yl]-methyl]benzamide]: on THP-1 microsomal ACAT [1] (setting [4]), the IC50 turned out to be 40 nM. Moreover, the “Imax Ex vivo” value on THP-1 microsomal ACAT [2] (setting [3]) amounted to 24.17%.
As for `COCCCNC(=O)Nc1ccc(N(C)C)cc1C(=O)NCC1CCN(C(c2ccccc2)c2ccccc2)CC1` [Example 103, 2-(N'-3-Methoxypropylureido)-5dimethylamino-N-[(1-diphenylmethylpiperidin-4-yl)methyl]benzamide], the IC50 at THP-1 microsomal ACAT [1] (setting [4]) worked out at 90 nM.
Same read-out and setting: then `COCCCNC(=O)Nc1ccc(N2CCOCC2)cc1C(=O)NCC1CCN(C(c2ccccc2)c2ccccc2)CC1` [Example 104, 2-(N'-3-Methoxypropylureido)-5-(morpholin-4-yl)-N-[(1-diphenylmethylpiperidin-4-yl)methyl]benzamide], with 100 nM; and `O=C(NCC1CC1)Nc1ccc(N2CCOCC2)cc1C(=O)NCC1CCN(C(c2ccccc2)c2ccccc2)CC1` [Example 105, 2-(N'-Cyclopropylmethylureido)-5-(morpholin-4-yl)-N-[(1-diphenylmethylpiperidin-4-yl)methyl]benzamide], with 100 nM; and `CCCCCCCNC(=O)Nc1ccc(C(C)C)cc1C(=O)NCC1CCN(C(c2ccccc2)c2ccccc2)CC1` [Example 106, 2-(N'-n-Heptylureido)-5-isopropyl-N-[(1-diphenylmethylpiperidin-4-yl)methyl]benzamide], with 220 nM.
Same read-out and setting: in the case of `CCCCNC(=O)Nc1ccc(N)cc1C(=O)NCC1CCN(C(c2ccccc2)c2ccccc2)CC1` [Example 109, 5-Amino-2-(N'-n-butylureido)-N-[(1-diphenylmethylpiperidin-4-yl)methyl]-benzamide] it was 400 nM.
Take `CCCCNC(=O)Nc1ccc(NC)cc1C(=O)NCC1CCN(C(c2ccccc2)c2ccccc2)CC1` [Example 112, 5-Methylamino-2-(N'-n-butylureido)-N-[(1-diphenylmethylpiperidin-4-yl)methyl]benzamide]: at THP-1 microsomal ACAT [1] (setting [4]), the IC50 is 200 nM.
